Results published in US20260042735A1, “BENZYLTRYPTAMINE COMPOUNDS” (priority 2021, published 2026).
pEC50, pIC50, pKi: −log10 of the molar value. Read-outs that look alike come from different tables or passages of the source.

How the values were obtained:
human 5-HT2A receptor [1] = biological target: T1, human 5-HT2A receptor (Homo sapiens (Human), UniProt P28223); test: 5HT2A competitive binding assay (Eurofins Cerep); settings: for Ki: Table 1, all units nM
Text: The compound is approximately equipotent to psilocybin based on data from the http:/PDSP.unc.edu/databases/pdsp.php.

5HT2B receptor [2] = biological target: T2, 5HT2B receptor (Homo sapiens, UniProt P41595); test: 5HT2B competitive binding assay; settings: for Ki: Table 1, all units nM, read-out: 2B Binding
5HT2B receptor [3] = biological target: T2, 5HT2B receptor; test: 5HT2B functional antagonist assay; type: cell-based; settings: for IC50: Table 1, all units nM, read-out: 2B IC50 Functional Antagonist
Experimental: Quantification of myo-Inositol-1-phosphate was performed using HTRF.

5HT2C receptor [4] = biological target: T3, 5HT2C receptor (Homo sapiens, UniProt P28335); settings: phosphoinositol hydrolysis; read-out: Agonist potency at human 5-HT2C receptor; cited from earlier work
human recombinant 5-HT1A = human recombinant 5-HT1A (Homo sapiens (Human), UniProt P08908); test: 5HT1A competitive binding assay (Eurofins Cerep); settings: for pKi: [3H]8-OHDPAT 0.5 nM, HEK-293, Cheng Prusoff, read-out: 5HT1A binding constant Ki
human 5-HT2A receptor [5] = biological target: T1, human 5-HT2A receptor; test: 5HT2A functional assay (agonism); type: cell-based
5HT2B receptor [6] = biological target: T2, 5HT2B receptor; test: 5HT2B (IP1) functional agonist assay; type: cell-based; settings: for EC50: Table 1, all units nM, read-out: 2B EC50 Functional Agonist
[7] = Pharmacokinetics after i.v. administration in rats; type: in vivo; settings: plasma, iv; rat, i.v. 1.0 mg/kg
Experimental: (§1) The compound of Example 1 was dispersed in water containing phosphate buffered saline at a rate of 1 mg/ml and then acidified to pH 4 to create a solution. The solution was administered to each of 3 rats (ca. 300 g each) at a rate of 1.0 mg/kg (ca. dose 0.33 ml, […]) via a catheter placed in the jugular vein. Animals were observed over a period of 12 h with counting the cumulative number head-twitch actions over each 10 min up to 2 hours and then for 10 min each at 3, 3.5 and 4 hours. Blood samples (0.25 ml) were collected via the catheter using 1 ml syringes into 0.8 ml K2EDTA tubes at 0.0833, 0.25, 0.5, 0.75, 1, 2, 4, 6 hours after the dose and placed on wet ice until processing. Psychological saline (0.25 ml) was reinjected after each blood draw via the catheter to the animal to flush the catheter and replenish blood volumes. The blood samples collected were centrifuged (3200 g, 5 min, 4 C) within 5 min of collection and the plasma recovered and placed in a cryovial and frozen in liquid nitrogen and stored at −80 C thereafter until analysis. A bioanalytical method was developed to quantify the compound in plasma using a Sciex 6500 Q-trap MSMS equipped with a standard LC system and after calibration with the compound of the example.

rats = test: Head-twitch counting during rat i.v. PK experiment; type: in vivo; settings: i.v. 1.0 mg/kg, duration of PK experiment
Experimental: as §1

Adrenergic Alpha 1A = Adrenergic Alpha 1A (Homo sapiens (Human), UniProt P35348); test: Functional GCPR assay, inhibition, Adrenergic Alpha 1A; type: cell-based; settings: read-out: IC50 (A1A) inhibition in functional GCPR assay
Adrenergic Alpha 2A = Adrenergic Alpha 2A (Homo sapiens (Human), UniProt P08913); test: Functional GCPR assay, inhibition, Adrenergic Alpha 2A; type: cell-based; settings: read-out: IC50 (A2A) inhibition in functional GCPR assay
5HT2C receptor [8] = settings: binding Ki ratio
5HT2C receptor [9] = biological target: T3, 5HT2C receptor; test: biochemical
patients = settings: cited from earlier work
cancer patients = settings: high-dose, 6-month follow-up; cited from earlier work
[10] = test system: patients with alcohol dependence; settings: 10 patients with alcohol dependence; cited from earlier work
[11] = test system: participants with tobacco addiction; settings: cited from earlier work
[12] = 125I-DOI 0.2 nM, CHO cells, Cheng Prusoff, read-out: 5HT2B binding constant Ki

T2 sequence (P41595 whole entry): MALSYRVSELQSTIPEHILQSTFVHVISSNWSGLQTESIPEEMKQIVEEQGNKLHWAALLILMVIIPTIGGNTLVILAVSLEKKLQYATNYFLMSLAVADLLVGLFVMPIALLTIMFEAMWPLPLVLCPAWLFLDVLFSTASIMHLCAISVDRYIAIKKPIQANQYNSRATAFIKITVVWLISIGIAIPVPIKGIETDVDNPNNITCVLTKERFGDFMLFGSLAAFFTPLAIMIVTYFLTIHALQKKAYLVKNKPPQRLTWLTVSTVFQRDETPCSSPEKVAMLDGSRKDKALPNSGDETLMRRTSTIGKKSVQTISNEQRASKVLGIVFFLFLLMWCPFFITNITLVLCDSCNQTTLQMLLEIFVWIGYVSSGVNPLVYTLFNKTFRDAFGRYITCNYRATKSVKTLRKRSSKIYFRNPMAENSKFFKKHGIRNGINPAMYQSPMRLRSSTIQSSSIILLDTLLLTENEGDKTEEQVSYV
T3 sequence (P28335 33-458 limits assumed): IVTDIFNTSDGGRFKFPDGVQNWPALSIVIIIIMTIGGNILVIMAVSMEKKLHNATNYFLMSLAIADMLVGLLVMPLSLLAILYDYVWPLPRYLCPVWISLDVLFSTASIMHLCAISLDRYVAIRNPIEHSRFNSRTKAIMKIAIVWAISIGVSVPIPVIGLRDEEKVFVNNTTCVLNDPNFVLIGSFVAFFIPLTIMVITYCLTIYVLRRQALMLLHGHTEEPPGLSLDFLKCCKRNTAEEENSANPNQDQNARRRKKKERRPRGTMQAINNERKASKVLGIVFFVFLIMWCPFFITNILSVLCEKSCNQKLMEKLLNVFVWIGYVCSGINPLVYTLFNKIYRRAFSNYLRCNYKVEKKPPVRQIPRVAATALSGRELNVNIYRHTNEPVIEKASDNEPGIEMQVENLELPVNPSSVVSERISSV
Chain of Adrenergic Alpha 1A (P35348 whole entry): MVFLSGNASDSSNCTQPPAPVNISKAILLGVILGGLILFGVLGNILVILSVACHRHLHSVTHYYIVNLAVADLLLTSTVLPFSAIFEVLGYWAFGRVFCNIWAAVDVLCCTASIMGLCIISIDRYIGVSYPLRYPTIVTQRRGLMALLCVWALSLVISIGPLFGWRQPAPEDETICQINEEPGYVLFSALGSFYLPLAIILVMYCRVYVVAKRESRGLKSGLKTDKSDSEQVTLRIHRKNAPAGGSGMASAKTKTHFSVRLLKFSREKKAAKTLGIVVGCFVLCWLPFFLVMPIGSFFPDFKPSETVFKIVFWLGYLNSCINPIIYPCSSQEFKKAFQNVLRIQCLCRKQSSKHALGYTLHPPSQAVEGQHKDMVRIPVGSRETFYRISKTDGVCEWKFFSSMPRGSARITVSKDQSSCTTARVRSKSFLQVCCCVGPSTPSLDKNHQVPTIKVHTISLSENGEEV
Chain of Adrenergic Alpha 2A (P08913 whole entry): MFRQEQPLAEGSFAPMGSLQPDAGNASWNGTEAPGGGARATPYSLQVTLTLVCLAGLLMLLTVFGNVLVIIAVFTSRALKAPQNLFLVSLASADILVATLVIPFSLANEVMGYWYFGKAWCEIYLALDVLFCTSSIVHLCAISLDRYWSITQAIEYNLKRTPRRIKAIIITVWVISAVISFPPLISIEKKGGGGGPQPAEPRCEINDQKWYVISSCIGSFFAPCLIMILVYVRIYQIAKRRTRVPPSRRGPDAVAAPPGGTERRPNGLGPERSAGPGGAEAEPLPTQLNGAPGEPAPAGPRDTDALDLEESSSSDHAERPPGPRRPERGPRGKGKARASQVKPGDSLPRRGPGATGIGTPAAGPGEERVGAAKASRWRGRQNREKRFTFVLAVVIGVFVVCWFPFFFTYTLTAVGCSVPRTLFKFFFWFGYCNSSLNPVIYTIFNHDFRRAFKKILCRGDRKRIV

Compound: COc1ccc2[nH]cc(CCN(C)Cc3c(OC)cccc3OC)c2c1 [A, reference compound]
- Ki (human 5-HT2A receptor [1]; 2A Binding): 1600 nM
- pKi (5HT2B receptor [2]): 6.40
- pIC50 (5HT2B receptor [3]): < 5.00

Compound: COc1cc(OC)c(CN(CCc2c[nH]c3ccc(OC)cc23)C(C)C)c(OC)c1 [B, reference compound]
- Ki (human 5-HT2A receptor [1]; read-out: 2A Binding): 4600 nM
- Ki (5HT2B receptor [2]): 4930 nM
- IC50 (5HT2B receptor [3]): > 10000 nM

Compound: COc1ccc2[nH]cc(CCN(C)Cc3cc(OC)c(OC)c(OC)c3)c2c1 [C, reference compound]
- Ki (human 5-HT2A receptor [1]; 2A Binding): 340 nM
- pKi (5HT2B receptor [2]): 7.12
- pIC50 (5HT2B receptor [3]): 5.69

Compound: CCCCn1cc(CCN(C)C)c2c(O)cccc21 [Compound 6]
- pEC50 (5HT2C receptor [4]): ~6.22

Compound: COc1ccc2[nH]cc(CCN(C)Cc3ccccc3OC)c2c1 [Example 1]
- pKi (human recombinant 5-HT1A): 6.27
- Selectivity for 5HT2A over 5HT1A (Ki) (human recombinant 5-HT1A; binding Ki ratio): about 5 fold
- pEC50 (human 5-HT2A receptor [5]; HEK-293): 6.28
- Emax (human 5-HT2A receptor [5]; at the highest concentrations, read-out: 5HT2A maximum efficacy): 80%
- pKi (5HT2B receptor [2]; [12]): 6.74
- 5HT2B functional agonist EC50 (IP1) (5HT2B receptor [6]; CHO cells, HTRF, serotonin 1 uM control): could not be determined for lack of activity
- pIC50 (5HT2B receptor [3]; CHO cells, background serotonin 10 uM, read-out: 5HT2B functional antagonist IC50): > 5.00
- 5HT2B functional mode (antagonist) (5HT2B receptor [3]; relative to serotonin): full antagonist
- half-life [7]: 1.1 h
- Head twitch activity (rats): no significant head twitch activity
- pIC50 (Adrenergic Alpha 1A): 5.74
- pIC50 (Adrenergic Alpha 2A): 5.77
- Selectivity for 5HT2A over 5HT2C (Ki) (5HT2C receptor [8]): about 6 fold
- pKi (5HT2C receptor [9]): 6.17

Compound: COc1cccc(CN(C)CCc2c[nH]c3ccccc23)c1 [Example 10]
- pKi (human recombinant 5-HT1A): 6.29
- pKi (human 5-HT2A receptor [1]; 125I-DOI 0.1 nM, HEK-293, Cheng Prusoff, read-out: 5HT2A binding constant Ki): 7.85
- pKi (5HT2B receptor [2]; [12]): 6.42
- pIC50 (5HT2B receptor [6]; Example 10, read-out: 5HT2B functional agonist mode IC50): 5.98
- 5HT2B functional agonist mode efficacy (5HT2B receptor [6]; up to 30 uM): < 20%
- pKi (5HT2C receptor [9]): 7.38

Compound: CCN(CCc1c[nH]c2ccc(OC)cc12)Cc1ccccc1OC [Example 11, N-ethyl-2-(5-methoxy-1H-indol-3-yl)-N-(2-methoxybenzyl)ethan-1-amine]
- Ki (human 5-HT2A receptor [1]; 2A Binding): 170 nM
- pKi (5HT2B receptor [2]): 6.76
- pEC50 (5HT2B receptor [6]): < 5.00

Compound: COc1ccc2[nH]cc(CCN(Cc3ccccc3OC)C(C)C)c2c1 [Example 12, N-(2-(5-methoxy-1H-indol-3-yl)ethyl)-N-(2-methoxybenzyl)propan-2-amine]
- Ki (human 5-HT2A receptor [1]; read-out: 2A Binding): 277 nM
- Ki (5HT2B receptor [2]): 341 nM
- EC50 (5HT2B receptor [6]): > 10000 nM

Compound: C=CCN(CCc1c[nH]c2ccc(OC)cc12)Cc1ccccc1OC [Example 13, N-(2-(5-methoxy-1H-indol-3-yl)ethyl)-N-(2-methoxybenzyl)prop-2-en-1-amine]
- Ki (human 5-HT2A receptor [1]; read-out: 2A Binding): 76 nM
- Ki (5HT2B receptor [2]): 73 nM
- EC50 (5HT2B receptor [6]): > 10000 nM
- IC50 (5HT2B receptor [3]): > 10000 nM

Compound: COc1ccc(CN(C)CCc2c[nH]c3ccccc23)cc1 [Example 14, 2-(1H-indol-3-yl)-N-(4-methoxybenzyl)-N-methylethan-1-amine]
- Ki (human 5-HT2A receptor [1]; read-out: 2A Binding): 280 nM
- Ki (5HT2B receptor [2]): 69 nM
- IC50 (5HT2B receptor [3]): 1670 nM

Compound: COc1cccc(CN(C)CCc2c[nH]c3ccccc23)c1OC [Example 15, N-(2,3-dimethoxybenzyl)-2-(H-indol-3-yl)-N-methylethan-1-amine]
- Ki (human 5-HT2A receptor [1]; 2A Binding): 274 nM
- pKi (5HT2B receptor [2]): 7.32
- pIC50 (5HT2B receptor [3]): 5.86

Compound: COc1cccc(CN(CCc2c[nH]c3ccccc23)C(C)C)c1OC [Example 16, N-(2-(1H-indol-3-yl)ethyl)-N-(2,3-dimethoxybenzyl)prop-2-an-1-amine]
- Ki (human 5-HT2A receptor [1]; read-out: 2A Binding): 2630 nM
- Ki (5HT2B receptor [2]): 313 nM
- EC50 (5HT2B receptor [6]): > 10000 nM
- IC50 (5HT2B receptor [3]): > 10000 nM

Compound: CN(CCc1c[nH]c2ccccc12)Cc1ccccc1 [Example 17, N-(2-(1H-indol-3-yl)ethyl)-N-(benzyl)methan-1-amine]
- Ki (human 5-HT2A receptor [1]; read-out: 2A Binding): 60 nM
- Ki (5HT2B receptor [2]): 45 nM
- IC50 (5HT2B receptor [3]): > 10000 nM

Compound: C/C=C\CN(CCc1c[nH]c2ccccc12)Cc1cccc(OC)c1 [Example 19, (Z)—N-(2-(1H-indol-3-yl)ethyl)-N-(3-methoxybenzyl)but-2-en-1-amine]
- Ki (human 5-HT2A receptor [1]; read-out: 2A Binding): 31 nM
- Ki (5HT2B receptor [2]): 44 nM
- EC50 (5HT2B receptor [6]): > 10000 nM
- IC50 (5HT2B receptor [3]): 3380 nM

Compound: C=C(C)CN(CCc1c[nH]c2ccccc12)Cc1cccc(OC)c1 [Example 20, N-(2-(1H-indol-3-yl)ethyl)-N-(3-methoxybenzyl)2-methylprop-2-en-1-amine]
- Ki (human 5-HT2A receptor [1]; read-out: 2A Binding): 135 nM

Compound: CCc1cccc(CN(C)CCc2c[nH]c3ccccc23)c1 [Example 21, 2-(1H-indol-3-yl)-N-(3-ethylbenzyl)-N-methylethan-1-amine]
- Ki (human 5-HT2A receptor [1]; read-out: 2A Binding): 5 nM
- IC50 (5HT2B receptor [3]): 687 nM

Compound: CN(CCc1c[nH]c2ccccc12)Cc1cccc(O)c1 [Example 22, 3-(((2-(1H-indol-3-yl)ethyl)(methyl)amino)methyl)phenol]
- Ki (human 5-HT2A receptor [1]; 2A Binding): 35 nM
- pKi (5HT2B receptor [2]): 7.51
- pIC50 (5HT2B receptor [3]): < 5.00

Compound: CN(CCc1c[nH]c2ccccc12)Cc1cccc(Br)c1 [Example 23, N-(3-bromobenzyl)-2-(1H-indol-3-yl)-N-methylethan-1-amine]
- Ki (human 5-HT2A receptor [1]; read-out: 2A Binding): 11 nM
- Ki (5HT2B receptor [2]): 22 nM
- IC50 (5HT2B receptor [3]): 1620 nM

Compound: CN(CCc1c[nH]c2ccccc12)Cc1cccc(CO)c1 [Example 24, N-(2-(1H-indol-3-yl)ethyl)-N-(3-hydroxymethylbenzyl)methan-1-amine]
- Ki (human 5-HT2A receptor [1]; read-out: 2A Binding): 59 nM
- Ki (5HT2B receptor [2]): 50 nM
- IC50 (5HT2B receptor [3]): 6990 nM

Compound: C#Cc1cccc(CN(C)CCc2c[nH]c3ccccc23)c1 [Example 25, 2-(1H-indol-3-yl)-N-(3-ethynylbenzyl)-N-methylethan-1-amine]
- Ki (human 5-HT2A receptor [1]; read-out: 2A Binding): 6 nM
- Ki (5HT2B receptor [2]): 13 nM
- EC50 (5HT2B receptor [6]): 163 nM
- IC50 (5HT2B receptor [3]): 2560 nM

Compound: CN(CCc1c[nH]c2ccccc12)Cc1cccc2c1OCO2 [Example 26]
- Ki (human 5-HT2A receptor [1]; read-out: 2A Binding): 73 nM
- Ki (5HT2B receptor [2]): 60 nM
- IC50 (5HT2B receptor [3]): 1090 nM

Compound: COc1cccc(CN(C)CCc2c[nH]c3ccc(OC)cc23)c1 [Example 27, 2-(5-methoxy-1H-indol-3-yl)-N-(3-methoxybenzyl)-N-methylethan-1-amine]
- Ki (human 5-HT2A receptor [1]; 2A Binding): 16 nM
- pKi (5HT2B receptor [2]): 7.80

Compound: COc1ccccc1CN(C)CCc1c[nH]c2ccccc12 [Example 28, 2-(1H-indol-3-yl)-N-(2-methoxybenzyl)-N-methylethan-1-amine]
- Ki (human 5-HT2A receptor [1]; 2A Binding): 130 nM
- pKi (5HT2B receptor [2]): 6.60

Compound: C=CCN(CCc1c[nH]c2ccccc12)Cc1cccc(OC)c1 [Example 29, N-(2-(1H-indol-3-yl)ethyl)-N-(3-methoxybenzyl)prop-2-en-1-amine]
- Ki (human 5-HT2A receptor [1]; read-out: 2A Binding): 28 nM
- Ki (5HT2B receptor [2]): 21 nM

Compound: C[C@H]1CNCCc2ccc(Cl)cc21 [Locaserin]
- Risk of cardiac valvulopathy (patients): no increased risk of cardiac valvulopathy

Compound: CN(C)CCc1c[nH]c2cccc(OP(=O)(O)O)c12 [psilocybin]
- Participants continuing to show clinically significant decreases in depressed mood and anxiety (cancer patients): about 80%
- Alcohol use post administration [10]: significant decrease in alcohol use
- Participants abstinent ([11]; 2.5 years after the target quit date): 75%
- Participants with biologically verified 7-day point-prevalence abstinence ([11]; 6-month follow up): eighty
- Participants biologically verified as abstinent ([11]; 12-month follow-up): 67%
